PMC7351026, “Serum Half-Lives for Short- and Long-Chain Perfluoroalkyl Acids after Ceasing Exposure from Drinking Water Contaminated by Firefighting Foam” (Environmental Health Perspectives, 2020)

Assay: Individual serum elimination rate and half-life (linear regression per employee);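 on HL (half-life): half-life in years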
Details: individual estimate; for half-life: human, serum, oral, HL (half-life)
Protocol: Serum PFAS concentrations were log-transformed. Time was calculated as the elapsed days between supply of clean bottled water and […] blood sampling. We assumed one compartment, first-order elimination kinetics. In this kinetic model, the body is considered as one homogeneous volume in which mixing is instantaneous and from which PFAS could be absorbed, transferred, and eliminated according to the rate of elimination that is proportional to the concentration of PFAS in the body. Two methods were used to estimate serum elimination rate constant (k) and half-life for each PFAS:
Method 2: For estimation of individual k, linear regression was used to derive the slope ( β ) of the logarithm of serum concentrations vs. time for each employee. The negative value of the slope ( −β ) for each individual was equivalent to the individual k, and individual serum elimination half-life was calculated as ln2/k for each PFAS. If β was positive (i.e., PFAS concentrations tended to increase over the five samplings), the half-life was not calculated.

Compound | Elimination rate (subject 1, 5 samples) | Elimination rate (subject 2, 5 samples) | Elimination rate (subject 3, 5 samples) | Elimination rate (subject 4, 5 samples) | Elimination rate (subject 5, 5 samples) | Elimination rate (subject 6, 4 samples) | Elimination rate (subject 7, 5 samples) | Elimination rate (subject 8, 5 samples) | Elimination rate (subject 9, 5 samples) | Elimination rate (subject 10, 5 samples) | Elimination rate (subject 11, 5 samples) | Elimination rate (subject 12, 5 samples) | Elimination rate (subject 13, 5 samples) | Elimination rate (subject 14, 4 samples) | Elimination rate (subject 15, 5 samples) | Elimination rate (subject 16, 5 samples) | Elimination rate (subject 17, 5 samples) | HL (half-life) (subject 2, 5 samples) | HL (half-life) (subject 3, 5 samples) | HL (half-life) (subject 5, 5 samples) | other results
O=S(=O)(O)C(F)(F)C(F)(F)C(F)(F)C(F)(F)C(F)(F)C(F)(F)F [PFHxS, perfluorohexane sulfonic acid] | 0.2 yearly | 0.3 yearly | 0.5 yearly | 0.1 yearly | 0.1 yearly | −0.1 yearly | 0.3 yearly | −0.01 yearly | −0.04 yearly | 0.4 yearly | 0.2 yearly | 0.4 yearly | 0.5 yearly | 0.6 yearly | 0.3 yearly | 0.04 yearly | 0.4 yearly |  |  |  | half-life (subject 1, 5 samples): 1280 days; half-life (subject 2, 5 samples): 730 days; half-life (subject 3, 5 samples): 548 days; half-life (subject 4, 5 samples): 3510 days; half-life (subject 5, 5 samples): 1720 days; half-life (subject 7, 5 samples): 840 days; half-life (subject 10, 5 samples): 694 days; half-life (subject 11, 5 samples): 1100 days; half-life (subject 12, 5 samples): 584 days; half-life (subject 13, 5 samples): 511 days; half-life (subject 14, 4 samples): 438 days; half-life (subject 15, 5 samples): 804 days; half-life (subject 16, 5 samples): 6940 days; half-life (subject 17, 5 samples): 584 days
O=S(=O)(O)C(F)(F)C(F)(F)C(F)(F)C(F)(F)C(F)(F)F [PFPeS, perfluoropentane sulfonic acid] | 0.7 yearly | 0.6 yearly | 0.7 yearly | 0.8 yearly | 0.4 yearly | 0.9 yearly | 0.7 yearly | 0.5 yearly | 0.7 yearly | 0.6 yearly | 2.0 yearly | 1.1 yearly | 0.8 yearly | 1.2 yearly | 2.5 yearly | 0.4 yearly | 2.4 yearly | 1.2 year | 0.9 year | 1.7 year | HL (half-life) (subject 1, 5 samples): 1.0 year; HL (half-life) (subject 4, 5 samples): 0.8 year; HL (half-life) (subject 6, 4 samples): 0.7 year; HL (half-life) (subject 7, 5 samples): 0.9 year; HL (half-life) (subject 8, 5 samples): 1.4 year; HL (half-life) (subject 9, 5 samples): 1.0 year; HL (half-life) (subject 10, 5 samples): 1.2 year; HL (half-life) (subject 11, 5 samples): 0.3 year; HL (half-life) (subject 12, 5 samples): 0.6 year; HL (half-life) (subject 13, 5 samples): 0.9 year; HL (half-life) (subject 14, 4 samples): 0.6 year; HL (half-life) (subject 15, 5 samples): 0.3 year; HL (half-life) (subject 16, 5 samples): 1.6 year; HL (half-life) (subject 17, 5 samples): 0.3 year
O=S(=O)(O)C(F)(F)C(F)(F)C(F)(F)C(F)(F)C(F)(F)C(F)(F)C(F)(F)C(F)(F)F [L-PFOS, linear perfluorooctane sulfonic acid] | −0.2 yearly | 0.4 yearly | 0.5 yearly | −0.3 yearly | 0.6 yearly | 0.04 yearly | 0.006 yearly | −0.4 yearly | 0.4 yearly | −0.2 yearly | 0.1 yearly | 0.8 yearly | 0.2 yearly | 0.3 yearly | 0.5 yearly | 0.6 yearly | 0.3 yearly | 1.7 year | 1.3 year | 1.2 year | HL (half-life) (subject 6, 4 samples): 17 year; HL (half-life) (subject 9, 5 samples): 1.8 year; HL (half-life) (subject 11, 5 samples): 4.7 year; HL (half-life) (subject 12, 5 samples): 0.9 year; HL (half-life) (subject 13, 5 samples): 3.7 year; HL (half-life) (subject 14, 4 samples): 2.0 year; HL (half-life) (subject 15, 5 samples): 1.3 year; HL (half-life) (subject 16, 5 samples): 1.2 year; HL (half-life) (subject 17, 5 samples): 2.1 year
Perfluoro-2/6-methylheptanesulfonate [2/6m-PFOS] | −0.2 yearly | 0.5 yearly | 0.7 yearly | 0.0 yearly | 0.4 yearly | 0.4 yearly | 1.1 yearly | −0.2 yearly | 0.2 yearly | −0.007 yearly | 1.7 yearly | 1.7 yearly | 1.0 yearly | 1.5 yearly | 1.2 yearly | −0.1 yearly | 1.9 yearly | 1.3 year | 1.0 year | 1.6 year | HL (half-life) (subject 6, 4 samples): 1.7 year; HL (half-life) (subject 7, 5 samples): 0.6 year; HL (half-life) (subject 9, 5 samples): 4.2 year; HL (half-life) (subject 11, 5 samples): 0.4 year; HL (half-life) (subject 12, 5 samples): 0.4 year; HL (half-life) (subject 13, 5 samples): 0.7 year; HL (half-life) (subject 14, 4 samples): 0.5 year; HL (half-life) (subject 15, 5 samples): 0.6 year; HL (half-life) (subject 17, 5 samples): 0.4 year
O=S(=O)(O)C(F)(C(F)(F)F)C(F)(F)C(F)(F)C(F)(F)C(F)(F)C(F)(F)C(F)(F)F (stereo not drawn) [1m-PFOS, perfluoro-1-methylheptanesulfonate] | 0.3 yearly | 0.1 yearly | 0.8 yearly | −0.1 yearly | 0.1 yearly | −0.1 yearly | −0.3 yearly | −0.5 yearly | −0.3 yearly | 0.6 yearly | 1.9 yearly | 0.03 yearly | 1.1 yearly | 1.7 yearly | 1.3 yearly | −0.3 yearly | 2.2 yearly | 5.4 year | 0.9 year | 5.9 year | HL (half-life) (subject 1, 5 samples): 2.0 year; HL (half-life) (subject 10, 5 samples): 1.2 year; HL (half-life) (subject 11, 5 samples): 0.4 year; HL (half-life) (subject 13, 5 samples): 0.6 year; HL (half-life) (subject 14, 4 samples): 0.4 year; HL (half-life) (subject 15, 5 samples): 0.6 year; HL (half-life) (subject 17, 5 samples): 0.3 year
perfluoro-3/4/5-methylheptanesulfonate [3/4/5m-PFOS] | 0.4 yearly | 0.3 yearly | 0.4 yearly | 0.1 yearly | 0.2 yearly | 0.04 yearly | 0.1 yearly | −0.2 yearly | 0.1 yearly | 0.2 yearly | 2.0 yearly | 0.5 yearly | 0.5 yearly | 0.3 yearly | 2.2 yearly | 0.3 yearly | 1.9 yearly | 2.1 year | 1.7 year | 3.1 year | HL (half-life) (subject 1, 5 samples): 1.9 year; HL (half-life) (subject 4, 5 samples): 11 year; HL (half-life) (subject 6, 4 samples): 19 year; HL (half-life) (subject 7, 5 samples): 4.8 year; HL (half-life) (subject 9, 5 samples): 10 year; HL (half-life) (subject 10, 5 samples): 4.0 year; HL (half-life) (subject 11, 5 samples): 0.4 year; HL (half-life) (subject 12, 5 samples): 1.3 year; HL (half-life) (subject 13, 5 samples): 1.5 year; HL (half-life) (subject 14, 4 samples): 2.0 year; HL (half-life) (subject 15, 5 samples): 0.3 year; HL (half-life) (subject 16, 5 samples): 2.0 year; HL (half-life) (subject 17, 5 samples): 0.4 year
